Blank lines part the entries; values can stand above or below the compound they belong to.
Key:
Assay in all cases: radiometric filter-binding kinase assay
[1] = target: RPS6KA1 KD1 KD2 (human) (UniProt Q15418)
[2] = target: CLK2 (human) (UniProt P49760)
[3] = target: FLT1 (human) (UniProt P17948)
[4] = target: MAP3K9 (human) (UniProt P80192)
[5] = target: BTK (human) (UniProt Q06187)
[6] = target: PRKCA (human) (UniProt P17252)
[7] = target: MAP3K1 (human) (UniProt Q13233)
[8] = target: HIPK1 (human) (UniProt Q86Z02)
[9] = target: MARK3 (human) (UniProt P27448)
[10] = target: INSRR (human) (UniProt P14616)
[11] = target: MAPK1 (human) (UniProt P28482); settings: compound 10.0 µM
[12] = target: MAPKAPK3 (human) (UniProt Q16644)
[13] = target: DYRK2 (human) (UniProt Q92630)
[14] = target: JAK2 JH1 JH2 (human) (UniProt O60674)
[15] = target: RIPK2 (human) (UniProt O43353)
[16] = target: MKNK2 (human) (UniProt Q9HBH9)
[17] = target: NTRK1 (human) (UniProt P04629); settings: compound 10.0 µM
[18] = target: HIPK2 (human) (UniProt Q9H2X6)
[19] = target: SRPK1 (human) (UniProt Q96SB4)
[20] = test system: AKT2 (human), P31751 [S474D]
[21] = test system: RPS6KB1 (human), P23443 [T412E]
[22] = target: INSR (human) (UniProt P06213)
[23] = target: AURKA (human) (UniProt O14965)
[24] = target: STK11 CAB39 STRADA (human) (UniProt Q9Y376+Q7RTN6+Q15831)
[25] = target: MAPK15 (human) (UniProt Q8TD08)
[26] = target: NEK6 (human) (UniProt Q9HC98)
[27] = target: YES1 (human) (UniProt P07947)
[28] = target: NEK2 (human) (UniProt P51955)
[29] = target: MARK4 (human) (UniProt Q96L34)
[30] = target: MAPK14 (human) (UniProt Q16539)
[31] = target: CSNK1D (human) (UniProt P48730)
[32] = target: IRAK4 (human) (UniProt Q9NWZ3)
[33] = target: CSNK2A1 (human) (UniProt P68400)
[34] = target: MAPK11 (human) (UniProt Q15759)
[35] = target: RPS6KA5 KD1 KD2 (human) (UniProt O75582)

Chain of INSR (human) (P06213 whole entry, looked up): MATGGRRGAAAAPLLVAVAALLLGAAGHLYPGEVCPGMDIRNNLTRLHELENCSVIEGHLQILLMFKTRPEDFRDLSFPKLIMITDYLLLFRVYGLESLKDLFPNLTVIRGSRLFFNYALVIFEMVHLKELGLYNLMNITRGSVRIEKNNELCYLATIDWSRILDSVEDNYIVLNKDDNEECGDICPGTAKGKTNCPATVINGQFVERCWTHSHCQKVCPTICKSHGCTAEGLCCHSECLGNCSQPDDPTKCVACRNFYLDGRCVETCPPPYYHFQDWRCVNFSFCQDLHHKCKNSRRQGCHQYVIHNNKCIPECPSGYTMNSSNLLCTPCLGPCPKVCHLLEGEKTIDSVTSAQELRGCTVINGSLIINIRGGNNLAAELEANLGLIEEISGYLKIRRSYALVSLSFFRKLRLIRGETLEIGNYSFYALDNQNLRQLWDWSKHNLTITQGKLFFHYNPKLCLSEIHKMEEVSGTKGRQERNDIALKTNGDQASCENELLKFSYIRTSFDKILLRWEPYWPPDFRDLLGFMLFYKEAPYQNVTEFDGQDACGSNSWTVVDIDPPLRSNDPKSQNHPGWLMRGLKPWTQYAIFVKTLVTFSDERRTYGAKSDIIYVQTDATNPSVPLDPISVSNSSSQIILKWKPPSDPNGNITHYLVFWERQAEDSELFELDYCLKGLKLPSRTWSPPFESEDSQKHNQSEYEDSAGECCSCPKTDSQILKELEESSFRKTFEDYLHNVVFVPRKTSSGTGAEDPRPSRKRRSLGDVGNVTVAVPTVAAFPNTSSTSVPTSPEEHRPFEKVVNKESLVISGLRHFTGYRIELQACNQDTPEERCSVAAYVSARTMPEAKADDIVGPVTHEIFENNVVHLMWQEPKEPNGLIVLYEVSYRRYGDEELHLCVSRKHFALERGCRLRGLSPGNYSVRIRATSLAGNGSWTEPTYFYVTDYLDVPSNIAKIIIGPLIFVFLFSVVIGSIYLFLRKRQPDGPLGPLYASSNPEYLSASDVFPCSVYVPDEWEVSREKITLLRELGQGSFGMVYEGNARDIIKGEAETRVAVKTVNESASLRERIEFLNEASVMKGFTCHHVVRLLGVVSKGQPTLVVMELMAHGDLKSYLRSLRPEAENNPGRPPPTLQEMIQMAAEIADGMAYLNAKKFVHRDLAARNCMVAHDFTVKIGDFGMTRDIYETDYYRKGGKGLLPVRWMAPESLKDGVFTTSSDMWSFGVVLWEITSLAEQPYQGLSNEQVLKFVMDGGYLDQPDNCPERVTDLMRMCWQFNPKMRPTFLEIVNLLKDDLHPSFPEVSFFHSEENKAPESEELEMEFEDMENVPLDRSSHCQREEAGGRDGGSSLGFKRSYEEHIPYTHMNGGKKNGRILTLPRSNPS
Chain of HIPK1 (human) (Q86Z02 whole entry, looked up): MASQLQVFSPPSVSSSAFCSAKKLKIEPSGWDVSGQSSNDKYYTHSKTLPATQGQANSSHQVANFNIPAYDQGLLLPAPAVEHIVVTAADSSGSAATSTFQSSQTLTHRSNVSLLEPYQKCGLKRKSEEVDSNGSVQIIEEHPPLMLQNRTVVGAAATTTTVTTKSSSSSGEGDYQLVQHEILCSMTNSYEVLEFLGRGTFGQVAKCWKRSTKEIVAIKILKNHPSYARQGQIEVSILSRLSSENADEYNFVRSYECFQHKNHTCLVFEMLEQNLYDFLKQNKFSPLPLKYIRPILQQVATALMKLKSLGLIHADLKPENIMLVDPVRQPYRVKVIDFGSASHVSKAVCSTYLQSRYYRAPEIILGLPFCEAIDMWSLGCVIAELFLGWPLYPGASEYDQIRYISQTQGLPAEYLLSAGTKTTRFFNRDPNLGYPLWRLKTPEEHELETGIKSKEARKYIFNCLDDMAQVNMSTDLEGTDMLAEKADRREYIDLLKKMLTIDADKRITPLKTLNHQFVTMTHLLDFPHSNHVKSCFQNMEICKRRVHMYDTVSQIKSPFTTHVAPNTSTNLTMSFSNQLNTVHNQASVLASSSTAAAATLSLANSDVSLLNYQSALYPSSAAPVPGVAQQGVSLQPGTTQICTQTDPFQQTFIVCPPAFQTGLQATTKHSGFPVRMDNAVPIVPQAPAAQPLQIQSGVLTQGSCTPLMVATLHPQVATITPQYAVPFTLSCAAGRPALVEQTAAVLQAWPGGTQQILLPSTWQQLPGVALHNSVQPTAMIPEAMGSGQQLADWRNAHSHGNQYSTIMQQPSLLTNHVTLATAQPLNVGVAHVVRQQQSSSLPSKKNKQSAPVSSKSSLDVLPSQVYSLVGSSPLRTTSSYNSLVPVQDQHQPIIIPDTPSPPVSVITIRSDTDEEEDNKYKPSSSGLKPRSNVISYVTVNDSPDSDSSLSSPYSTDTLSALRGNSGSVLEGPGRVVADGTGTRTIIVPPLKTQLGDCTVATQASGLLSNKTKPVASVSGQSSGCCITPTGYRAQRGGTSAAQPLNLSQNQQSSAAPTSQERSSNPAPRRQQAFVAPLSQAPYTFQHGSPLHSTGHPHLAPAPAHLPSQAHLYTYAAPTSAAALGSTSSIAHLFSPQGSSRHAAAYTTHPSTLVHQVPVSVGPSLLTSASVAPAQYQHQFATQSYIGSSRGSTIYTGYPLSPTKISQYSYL
Chain of MKNK2 (human) (Q9HBH9 whole entry, looked up): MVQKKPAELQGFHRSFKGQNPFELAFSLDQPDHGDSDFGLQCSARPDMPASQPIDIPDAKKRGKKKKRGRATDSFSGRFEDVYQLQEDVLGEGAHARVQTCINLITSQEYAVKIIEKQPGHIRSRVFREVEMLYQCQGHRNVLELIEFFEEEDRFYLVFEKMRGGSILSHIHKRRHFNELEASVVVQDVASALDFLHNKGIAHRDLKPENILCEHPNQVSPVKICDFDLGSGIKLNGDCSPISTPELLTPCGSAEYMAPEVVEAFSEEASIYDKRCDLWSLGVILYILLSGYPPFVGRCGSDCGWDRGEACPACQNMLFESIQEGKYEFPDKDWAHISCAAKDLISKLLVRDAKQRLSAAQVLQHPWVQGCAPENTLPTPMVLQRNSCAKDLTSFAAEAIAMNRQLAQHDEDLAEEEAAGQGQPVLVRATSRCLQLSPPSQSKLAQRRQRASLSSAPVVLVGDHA
Chain of YES1 (human) (P07947 whole entry, looked up): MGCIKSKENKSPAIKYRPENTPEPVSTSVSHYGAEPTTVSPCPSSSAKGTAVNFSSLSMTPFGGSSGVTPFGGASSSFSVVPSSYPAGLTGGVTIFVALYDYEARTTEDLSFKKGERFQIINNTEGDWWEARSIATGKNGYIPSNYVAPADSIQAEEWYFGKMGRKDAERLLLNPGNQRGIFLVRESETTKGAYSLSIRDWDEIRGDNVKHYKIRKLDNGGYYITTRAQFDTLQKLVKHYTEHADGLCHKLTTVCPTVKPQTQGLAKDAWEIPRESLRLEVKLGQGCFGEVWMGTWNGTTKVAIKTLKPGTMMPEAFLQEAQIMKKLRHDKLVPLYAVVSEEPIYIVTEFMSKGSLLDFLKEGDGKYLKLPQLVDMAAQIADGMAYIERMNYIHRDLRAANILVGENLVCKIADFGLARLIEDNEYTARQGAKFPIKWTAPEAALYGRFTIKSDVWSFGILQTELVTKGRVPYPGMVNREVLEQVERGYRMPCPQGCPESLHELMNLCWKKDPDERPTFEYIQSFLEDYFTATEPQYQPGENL
Chain of MAPK15 (human) (Q8TD08 whole entry, looked up): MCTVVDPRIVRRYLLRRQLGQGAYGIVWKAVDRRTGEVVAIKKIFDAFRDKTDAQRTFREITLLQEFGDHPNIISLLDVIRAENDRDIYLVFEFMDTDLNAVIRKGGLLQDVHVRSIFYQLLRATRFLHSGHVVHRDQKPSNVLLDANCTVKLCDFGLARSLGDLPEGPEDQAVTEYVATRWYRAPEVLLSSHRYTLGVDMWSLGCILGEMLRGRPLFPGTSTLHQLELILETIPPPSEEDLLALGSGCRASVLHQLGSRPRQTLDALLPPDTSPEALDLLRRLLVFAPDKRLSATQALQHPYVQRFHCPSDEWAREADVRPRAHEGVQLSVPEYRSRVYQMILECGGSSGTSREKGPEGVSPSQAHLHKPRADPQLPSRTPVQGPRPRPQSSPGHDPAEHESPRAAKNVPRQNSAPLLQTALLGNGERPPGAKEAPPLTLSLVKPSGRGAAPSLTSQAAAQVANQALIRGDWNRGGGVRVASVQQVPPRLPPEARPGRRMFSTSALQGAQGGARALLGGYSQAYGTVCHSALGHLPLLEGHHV
Chain of AURKA (human) (O14965 whole entry, looked up): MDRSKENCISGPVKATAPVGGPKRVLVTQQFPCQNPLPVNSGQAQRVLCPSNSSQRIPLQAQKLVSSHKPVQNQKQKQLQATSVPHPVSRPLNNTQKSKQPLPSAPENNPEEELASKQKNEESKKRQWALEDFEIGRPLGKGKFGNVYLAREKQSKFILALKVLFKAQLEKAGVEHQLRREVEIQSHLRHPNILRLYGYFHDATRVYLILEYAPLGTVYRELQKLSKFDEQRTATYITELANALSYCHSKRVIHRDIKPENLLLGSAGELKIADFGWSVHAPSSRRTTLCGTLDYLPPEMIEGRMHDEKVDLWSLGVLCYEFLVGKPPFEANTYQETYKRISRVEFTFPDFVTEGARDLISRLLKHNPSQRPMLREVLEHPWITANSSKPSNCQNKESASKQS
Chain of MAPKAPK3 (human) (Q16644 whole entry, looked up): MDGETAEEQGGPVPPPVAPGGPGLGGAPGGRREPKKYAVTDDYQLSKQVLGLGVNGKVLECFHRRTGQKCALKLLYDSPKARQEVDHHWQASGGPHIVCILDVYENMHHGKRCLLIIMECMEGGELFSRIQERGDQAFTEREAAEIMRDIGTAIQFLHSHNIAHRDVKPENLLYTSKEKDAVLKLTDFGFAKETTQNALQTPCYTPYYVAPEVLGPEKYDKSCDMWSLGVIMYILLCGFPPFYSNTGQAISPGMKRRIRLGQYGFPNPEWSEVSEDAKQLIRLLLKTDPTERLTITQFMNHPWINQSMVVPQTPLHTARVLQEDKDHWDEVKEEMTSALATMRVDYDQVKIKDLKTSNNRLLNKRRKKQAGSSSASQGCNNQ

residual activity ([1]; compound 10.0 µM): 80%
residual activity ([2]; compound 10.0 µM): 79%
residual activity ([3]; compound 10.0 µM): 64%
residual activity ([4]; compound 10.0 µM): 75%
residual activity ([5]; compound 10.0 µM): 90%
residual activity ([6]; compound 10.0 µM): 113%
residual activity ([7]; compound 10.0 µM): 92%
residual activity ([8]; compound 10.0 µM): 111%
residual activity ([9]; compound 10.0 µM): 72%
residual activity ([10]; compound 10.0 µM): 104%
residual activity [11]: 86%
residual activity ([12]; compound 10.0 µM): 102%
residual activity ([13]; compound 10.0 µM): 94%
residual activity ([14]; compound 10.0 µM): 104%
residual activity ([15]; compound 10.0 µM): 91%
residual activity ([16]; compound 10.0 µM): 80%
residual activity [17]: 95%
residual activity ([18]; compound 10.0 µM): 88%
residual activity ([19]; compound 10.0 µM): 90%
residual activity ([20]; compound 10.0 µM): 82%
residual activity ([21]; compound 10.0 µM): 94%
residual activity ([22]; compound 10.0 µM): 58%
residual activity ([23]; compound 10.0 µM): 105%
residual activity ([24]; compound 10.0 µM): 124%
residual activity ([26]; compound 10.0 µM): 82%
residual activity ([27]; compound 10.0 µM): 82%
residual activity ([28]; compound 10.0 µM): 94%
residual activity ([29]; compound 10.0 µM): 86%
residual activity ([30]; compound 10.0 µM): 88%
residual activity ([31]; compound 10.0 µM): 81%
residual activity ([32]; compound 10.0 µM): 79%
residual activity ([33]; compound 10.0 µM): 82%
residual activity ([34]; compound 10.0 µM): 70%
SMILES: CC(C)C[C@H](NC(=O)CNC(=O)c1cc(Cl)ccc1Cl)B1OC(=O)CC(CC(=O)O)(C(=O)O)O1 (some centres not stated)
residual activity ([25]; compound 10.0 µM): 100%

residual activity ([1]; compound 1.0 µM): 96%
residual activity ([1]; compound 10.0 µM): 95%
residual activity ([2]; compound 1.0 µM): 127%
residual activity ([3]; compound 1.0 µM): 89%
residual activity ([3]; compound 10.0 µM): 104%
residual activity ([4]; compound 1.0 µM): 82%
residual activity ([4]; compound 10.0 µM): 88%
residual activity ([5]; compound 10.0 µM): 105%
residual activity ([6]; compound 10.0 µM): 88%
residual activity ([7]; compound 10.0 µM): 107%
residual activity ([8]; compound 1.0 µM): 98%
residual activity ([9]; compound 1.0 µM): 101%
residual activity ([9]; compound 10.0 µM): 100%
residual activity ([10]; compound 1.0 µM): 87%
residual activity ([10]; compound 10.0 µM): 83%
residual activity [11]: 89%
residual activity ([12]; compound 1.0 µM): 103%
residual activity ([12]; compound 10.0 µM): 101%
residual activity ([35]; compound 1.0 µM): 103%
residual activity ([35]; compound 10.0 µM): 110%
residual activity ([13]; compound 1.0 µM): 93%
residual activity ([13]; compound 10.0 µM): 92%
residual activity ([14]; compound 1.0 µM): 89%
residual activity ([14]; compound 10.0 µM): 93%
residual activity ([15]; compound 1.0 µM): 107%
residual activity ([15]; compound 10.0 µM): 121%
residual activity ([16]; compound 10.0 µM): 108%
residual activity [17]: 92%
residual activity ([18]; compound 1.0 µM): 88%
residual activity ([18]; compound 10.0 µM): 97%
residual activity ([19]; compound 1.0 µM): 92%
residual activity ([19]; compound 10.0 µM): 102%
residual activity ([20]; compound 10.0 µM): 88%
residual activity ([21]; compound 1.0 µM): 94%
residual activity ([21]; compound 10.0 µM): 85%
residual activity ([22]; compound 1.0 µM): 89%
residual activity ([22]; compound 10.0 µM): 93%
residual activity ([23]; compound 1.0 µM): 103%
residual activity ([23]; compound 10.0 µM): 97%
residual activity ([24]; compound 1.0 µM): 127%
residual activity ([24]; compound 10.0 µM): 104%
residual activity ([26]; compound 10.0 µM): 102%
residual activity ([27]; compound 10.0 µM): 79%
residual activity ([28]; compound 1.0 µM): 109%
residual activity ([28]; compound 10.0 µM): 100%
residual activity ([29]; compound 1.0 µM): 93%
residual activity ([29]; compound 10.0 µM): 103%
residual activity ([30]; compound 10.0 µM): 102%
residual activity ([31]; compound 1.0 µM): 86%
residual activity ([31]; compound 10.0 µM): 84%
residual activity ([32]; compound 10.0 µM): 99%
residual activity ([33]; compound 1.0 µM): 80%
residual activity ([33]; compound 10.0 µM): 88%
residual activity ([34]; compound 1.0 µM): 95%
residual activity ([34]; compound 10.0 µM): 98%
SMILES: NS(=O)(=O)OC[C@@H]1C[C@@H](n2ccc3c(N[C@H]4CCc5ccccc54)ncnc32)C[C@@H]1O

residual activity ([1]; compound 10.0 µM): 90%
residual activity ([2]; compound 10.0 µM): 95%
residual activity ([3]; compound 10.0 µM): 78%
residual activity ([4]; compound 10.0 µM): 108%
residual activity ([5]; compound 10.0 µM): 86%
residual activity ([6]; compound 10.0 µM): 82%
residual activity ([7]; compound 10.0 µM): 85%
residual activity ([8]; compound 10.0 µM): 94%
residual activity ([9]; compound 10.0 µM): 106%
residual activity ([10]; compound 10.0 µM): 102%
residual activity [11]: 90%
residual activity ([12]; compound 10.0 µM): 90%
residual activity ([13]; compound 10.0 µM): 107%
residual activity ([14]; compound 10.0 µM): 97%
residual activity ([15]; compound 10.0 µM): 109%
residual activity ([16]; compound 10.0 µM): 92%
residual activity [17]: 103%
residual activity ([18]; compound 10.0 µM): 97%
residual activity ([19]; compound 10.0 µM): 82%
residual activity ([20]; compound 10.0 µM): 84%
residual activity ([21]; compound 10.0 µM): 95%
residual activity ([22]; compound 10.0 µM): 93%
residual activity ([23]; compound 10.0 µM): 99%
residual activity ([24]; compound 10.0 µM): 97%
residual activity ([26]; compound 10.0 µM): 78%
residual activity ([27]; compound 10.0 µM): 105%
residual activity ([28]; compound 10.0 µM): 102%
residual activity ([29]; compound 10.0 µM): 85%
residual activity ([30]; compound 10.0 µM): 74%
residual activity ([31]; compound 10.0 µM): 79%
residual activity ([32]; compound 10.0 µM): 66%
residual activity ([33]; compound 10.0 µM): 79%
residual activity ([34]; compound 10.0 µM): 101%
SMILES: O=S(=O)(c1ccc(F)c2nonc12)N1CCN(c2ncc(C(F)(F)F)cc2Cl)CC1
residual activity ([25]; compound 10.0 µM): 79%

residual activity ([1]; compound 1.0 µM): 98%
residual activity ([1]; compound 10.0 µM): 97%
residual activity ([2]; compound 1.0 µM): 104%
residual activity ([2]; compound 10.0 µM): 98%
residual activity ([3]; compound 1.0 µM): 100%
residual activity ([3]; compound 10.0 µM): 110%
residual activity ([4]; compound 1.0 µM): 99%
residual activity ([4]; compound 10.0 µM): 99%
residual activity ([5]; compound 1.0 µM): 104%
residual activity ([5]; compound 10.0 µM): 107%
residual activity ([6]; compound 1.0 µM): 107%
residual activity ([6]; compound 10.0 µM): 100%
residual activity ([7]; compound 1.0 µM): 101%
residual activity ([7]; compound 10.0 µM): 97%
residual activity ([8]; compound 1.0 µM): 92%
residual activity ([8]; compound 10.0 µM): 101%
residual activity ([9]; compound 1.0 µM): 91%
residual activity ([9]; compound 10.0 µM): 94%
residual activity ([10]; compound 1.0 µM): 102%
residual activity ([10]; compound 10.0 µM): 109%
residual activity ([12]; compound 1.0 µM): 94%
residual activity ([12]; compound 10.0 µM): 86%
residual activity ([35]; compound 1.0 µM): 91%
residual activity ([13]; compound 1.0 µM): 101%
residual activity ([13]; compound 10.0 µM): 103%
residual activity ([14]; compound 1.0 µM): 103%
residual activity ([14]; compound 10.0 µM): 93%
residual activity ([15]; compound 1.0 µM): 97%
residual activity ([15]; compound 10.0 µM): 106%
residual activity ([16]; compound 1.0 µM): 80%
residual activity ([16]; compound 10.0 µM): 89%
residual activity [17]: 141%
residual activity ([18]; compound 1.0 µM): 107%
residual activity ([18]; compound 10.0 µM): 103%
residual activity ([19]; compound 1.0 µM): 104%
residual activity ([19]; compound 10.0 µM): 104%
residual activity ([20]; compound 1.0 µM): 85%
residual activity ([20]; compound 10.0 µM): 94%
residual activity ([21]; compound 1.0 µM): 94%
residual activity ([21]; compound 10.0 µM): 93%
residual activity ([22]; compound 10.0 µM): 107%
residual activity ([23]; compound 1.0 µM): 113%
residual activity ([23]; compound 10.0 µM): 100%
residual activity ([24]; compound 1.0 µM): 116%
residual activity ([24]; compound 10.0 µM): 112%
residual activity ([26]; compound 1.0 µM): 105%
residual activity ([26]; compound 10.0 µM): 96%
residual activity ([27]; compound 1.0 µM): 102%
residual activity ([27]; compound 10.0 µM): 102%
residual activity ([28]; compound 1.0 µM): 97%
residual activity ([28]; compound 10.0 µM): 96%
residual activity ([29]; compound 10.0 µM): 90%
residual activity ([30]; compound 1.0 µM): 105%
residual activity ([30]; compound 10.0 µM): 103%
residual activity ([31]; compound 1.0 µM): 102%
residual activity ([31]; compound 10.0 µM): 97%
residual activity ([32]; compound 1.0 µM): 107%
residual activity ([32]; compound 10.0 µM): 110%
residual activity ([33]; compound 1.0 µM): 106%
residual activity ([33]; compound 10.0 µM): 93%
residual activity ([34]; compound 1.0 µM): 96%
residual activity ([34]; compound 10.0 µM): 106%
SMILES: Nc1cccc2c1CN(C1CCC(=O)NC1=O)C2=O (configuration not stated)
residual activity ([25]; compound 1.0 µM): 92%
residual activity ([25]; compound 10.0 µM): 98%
